Experimental data reported in publication PMC5734728, “The JAK2/STAT3 inhibitor pacritinib effectively inhibits patient-derived GBM brain tumor initiating cells in vitro and when used in combination with temozolomide increases survival in an orthotopic xenograft model” (PLoS ONE, 2017).

Assays:
BT48 = test: alamarBlue BTIC viability assay, BT48; type: cell-based; details: Homo sapiens; BTIC line BT48, alamarBlue
BT50 = test: alamarBlue BTIC viability assay, BT50; type: cell-based; details: Homo sapiens; BTIC line BT50, alamarBlue
BT69 = test: alamarBlue BTIC viability assay, BT69; type: cell-based; details: Homo sapiens; BTIC line BT69, alamarBlue
BT143 = test: alamarBlue BTIC viability assay, BT143; type: cell-based; details: Homo sapiens; BTIC line BT143, alamarBlue
BT147 [1] = test: alamarBlue BTIC viability assay, BT147; type: cell-based; details: Homo sapiens; BTIC line BT147, alamarBlue
BT189 = test: alamarBlue BTIC viability assay, BT189; type: cell-based; details: Homo sapiens; BTIC line BT189, alamarBlue
BT147 [2] = test: neurosphere assay, BT147; type: cell-based, human; details: 3 μM
p-STAT3 Y705 = test: western blotting of activated STAT3 in BTICs; type: cell-based, human; details: for STAT3 activation (phosphorylation on tyrosine 705): 3 hours
Experimental: (§1) BTIC spheres were enzymatically dissociated as described above and plated at 10^6 cells/2 mL of media. Cells were treated with vehicle (DMSO), pacritinib, TMZ, or a combination of pacritinib and TMZ and pelleted at select time points (3, 24, and 48 hours). For protein extraction, BTICs were lysed in modified radio-immunoprecipitation assay buffer supplemented with Complete Mini protease (Roche) and Halt phosphatase (Thermo Scientific) inhibitor cocktails. Protein concentrations were quantified using the BioRad protein assay; 20 μg of protein were loaded on 6% or 10% sodium dodecyl sulfate polyacrylamide gel electrophoresis (SDS PAGE) gels and transblotted to nitrocellulose membranes. Blots were stained with primary antibodies followed by horseradish peroxidase-conjugated secondary antibodies. Primary antibodies included p-STAT3 Y705 (1:1000; Cell Signaling Technology), STAT3 (1:1000; Cell Signaling Technology), p-Akt S473 (1:1000; Cell Signaling Technology), Akt (1:1000; Cell Signaling Technology), p-p44/42 MAPK (T202/Y204) (1:1000; Cell Signaling Technology), p44/42 MAPK (1:4000; Cell Signaling Technology), poly (ADP-ribose) polymerase (1:1000; Cell Signaling Technology), β-tubulin (1:1000; Cell Signaling Technology), and Actin (1:1000; Santa Cruz Biotechnology). Secondary antibodies included donkey anti-mouse (1:5000; Cell Signaling Technology), donkey anti-goat (1:5000; Millipore), and goat anti-rabbit (1:5000; Cell Signaling Technology). The blots were washed with tris-buffered saline and tween 20 (T-TBS) (50mM Tris, 150mM NaCl, 0.05% Tween 20, pH 7.6) and blocked with tris-buffered saline (TBS) before imaging. Bands were visualized with the SuperSignal West Pico chemiluminescent solution (Thermo Scientific) and an Amersham™ Imager 600 (General Electric).

cleaved PARP = test: western blotting of cleaved PARP in BTICs; type: cell-based, human; details: BT69, 24 hours
Experimental: as §1, with “Protein concentrations were quantified using the BioRad protein assay; 20 μg of protein were loaded on 6% or 10% sodium dodecyl sulfate polyacrylamide gel electrophoresis (SDS PAGE) gels and transblotted to nitrocellulose membranes.” left out, “Primary antibodies included p-STAT3 Y705 (1:1000;” left out, “The blots were washed with tris-buffered saline and tween 20 (T-TBS) (50mM Tris, 150mM NaCl, 0.05% Tween 20, pH 7.6) and blocked with tris-buffered saline (TBS) before imaging.” left out

p-Akt S473 = test: western blotting of p-Akt in BTICs; type: cell-based, human
Experimental: as §1, with “Protein concentrations were quantified using the BioRad protein assay; 20 μg of protein were loaded on 6% or 10% sodium dodecyl sulfate polyacrylamide gel electrophoresis (SDS PAGE) gels and transblotted to nitrocellulose membranes.” left out, “Primary antibodies included p-STAT3 Y705 (1:1000;” left out, “The blots were washed with tris-buffered saline and tween 20 (T-TBS) (50mM Tris, 150mM NaCl, 0.05% Tween 20, pH 7.6) and blocked with tris-buffered saline (TBS) before imaging.” left out

[3] = system: p-p44/42 MAPK (T202/Y204); test: western blotting of p-p44/42 MAPK in BTICs; type: cell-based, human
Experimental: as §1, with “Protein concentrations were quantified using the BioRad protein assay; 20 μg of protein were loaded on 6% or 10% sodium dodecyl sulfate polyacrylamide gel electrophoresis (SDS PAGE) gels and transblotted to nitrocellulose membranes.” left out, “Primary antibodies included p-STAT3 Y705 (1:1000;” left out, “The blots were washed with tris-buffered saline and tween 20 (T-TBS) (50mM Tris, 150mM NaCl, 0.05% Tween 20, pH 7.6) and blocked with tris-buffered saline (TBS) before imaging.” left out

[4] = system: BT143 orthotopic xenograft; test: Kaplan-Meier survival, orthotopic BT143 xenograft; type: in vivo; details: BT143 xenografted mice; p < 0.4622 log-rank
[5] = human, in vivo, cited from earlier work
BT12 = test: alamarBlue BTIC viability assay, BT12; details: Homo sapiens, BT-12, read-out: IC50 (viability)
Experimental: (§2) Accumax (eBioscience) was used to enzymatically dissociate BTIC spheres to single cells. Cells were seeded at 1000 cells per well in 96-well plates and treated with vehicle (DMSO) or drug, 24 hours after plating. BTIC viability was assessed after 7–14 days, once spheres were formed in control wells, by performing the alamarBlue™ (Invitrogen) assay per the manufacturer’s instructions. In brief, the alamar dye was added to each well and plates were read 6 hours later. Fluorescence intensity (excitation 540 nm; emission 590 nm) was measured on a SpectraMax M Series Multi-Mode Microplate reader. […] All experiments were performed in triplicate with a minimum of 3 wells per condition.
(§3) BTICs were treated with suboptimal doses of 1 μM pacritinib (CTI Biopharma), 10 μg/mL TMZ (Sigma), or a combination of pacritinib and TMZ. […] Percent inhibition was determined by normalizing each well to the control well (0.1% DMSO).

BT53 = test: alamarBlue BTIC viability assay, BT53; details: Homo sapiens, read-out: IC50 (viability)
Experimental: as §2, §3

[6] = BT147 and BT53, low micromolar concentrations, 3 hours

In the case of `C1=C/COCc2cc(ccc2OCCN2CCCC2)Nc2nccc(n2)-c2cccc(c2)COC/1` [pacritinib], the IC50 (BT48) is reported as 1030 nM, the IC50 (BT50) is reported as 620 nM and the IC50 (BT69) is reported as 1260 nM. The IC50 (BT143) was 1360 nM, the IC50 (BT147 [1]) was 990 nM and the IC50 (BT189) was 1010 nM. For the same compound, the sphere formation (BT147 [2]) was “completely abolished sphere formation”, the “p-STAT3 Y705” value (p-STAT3 Y705; BT53, 48 hours, 1 μM pacritinib, 10 μg/mL TMZ or both) was “dramatically reduced phosphorylation” and the “STAT3 activation (phosphorylation on tyrosine 705)” value (p-STAT3 Y705; BT53, low micromolar concentrations) was “decreased STAT3 activation”. For the same compound, the “activated STAT3 (phosphorylation on tyrosine 705)” value (p-STAT3 Y705; BT69, 3 hours) was “decreased activated STAT3”, the “STAT3 activation (phosphorylation on tyrosine 705)” value (p-STAT3 Y705; BT147, 1 μM) was “strongly decreased STAT3 activation” and the “cell death (cleaved PARP levels)” value (cleaved PARP) was “increase in cleaved PARP levels”. The “p-Akt S473” value (p-Akt S473; BT147 and BT53, 5 and 10 μM) was “decreased”, the “phosphorylation of AKT S473” value (p-Akt S473; [6]) was “unchanged levels of phosphorylation” and the “p-p44/42 MAPK” value ([3]; BT53, 5 and 10 μM) was “decreased p-p44/42 MAPK”. The “phosphorylation of p44/42 MAPK (T202/Y204)” value [3, 6] was “unchanged levels of phosphorylation”, the “efficacy of treatment alone (Kaplan-Meier survival)” value [4] was “no efficacy” and the Cmax ([5]; 100 mg) was 7.8 µM. The “mean maximum concentration (Cmax)” value ([5]; 100 mg) was 3699 ng/mL, the “median time to maximum concentration (Tmax)” value [5] was 5 h and the IC50 (BT12) was 1660 nM. For the same compound, the IC50 (BT53) was 920 nM.
